Results on one compound are retold here after patent US20030086923A1, “Method for the prevention and/or treatment of atherosclerosis” (priority 1999, published 2003).

The target in one assay is T1, human GST-LXRα receptor (Homo sapiens, UniProt Q13133).
T1 construct: made in house; host or cells: E. coli (pGEX-KT vector)
T1 sequence (Q13133 164-447): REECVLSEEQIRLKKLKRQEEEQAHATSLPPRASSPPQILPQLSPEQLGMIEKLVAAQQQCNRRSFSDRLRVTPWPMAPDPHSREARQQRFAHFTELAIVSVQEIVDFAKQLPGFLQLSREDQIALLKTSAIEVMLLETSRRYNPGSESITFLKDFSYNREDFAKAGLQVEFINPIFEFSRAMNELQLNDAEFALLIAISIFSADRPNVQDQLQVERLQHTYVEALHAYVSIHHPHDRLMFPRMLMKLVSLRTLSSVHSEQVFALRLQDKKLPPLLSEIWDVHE
In words: Radioligand competition binding scintillation proximity assay, LXRα. The source says: Radioligand Competition Binding Scintillation Proximity Assays:
Preparation of Recombinant Human LXRα and LXRβ:
Human LXRα and LXRβ were expressed as GST-fusion proteins in E. coli. The ligand binding domain cDNAs for human LXRα (amino acids 164-447) and human LXRβ (amino acids 149-455) were subcloned into the pGEX-KT expression vector (Pharmacia). E. coli containing the respective plasmids were propagated, induced, and harvested by centrifugation. The resuspended pellet was broken in a French press and debris was removed by centrifugation. Recombinant human LXR receptors were purified by affinity chromatography on glutathione sepharose and receptor was eluted with glutathione. Glycerol was added to a final concentration of 50% to stabilize the receptor and aliquots were stored at −80° C.
After incubation for ˜16 h at 15° C. with shaking, the assay plates were counted in a Packard Topcount.

A further assay addresses T2, human PPARγ (Homo sapiens, UniProt P37231).
T2 sequence (P37231 1-505): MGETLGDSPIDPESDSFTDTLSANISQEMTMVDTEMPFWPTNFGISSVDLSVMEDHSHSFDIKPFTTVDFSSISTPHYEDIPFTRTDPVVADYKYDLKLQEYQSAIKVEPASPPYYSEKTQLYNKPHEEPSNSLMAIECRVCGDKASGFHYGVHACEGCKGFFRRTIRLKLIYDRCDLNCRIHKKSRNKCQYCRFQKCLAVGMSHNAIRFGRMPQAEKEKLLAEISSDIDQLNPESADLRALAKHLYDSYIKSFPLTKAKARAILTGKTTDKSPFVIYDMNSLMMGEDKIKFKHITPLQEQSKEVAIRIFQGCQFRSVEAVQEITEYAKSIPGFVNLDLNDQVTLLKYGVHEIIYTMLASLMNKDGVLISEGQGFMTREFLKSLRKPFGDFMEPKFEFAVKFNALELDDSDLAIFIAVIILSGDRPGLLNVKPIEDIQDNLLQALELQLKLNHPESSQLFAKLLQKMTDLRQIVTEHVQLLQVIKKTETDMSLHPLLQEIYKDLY
Nature of the assay: PPARγ competition binding assay. The source says: (§1) The term ligand throughout this application should be understood to include an agonist, partial agonist or antagonist of LXR. The ligand may be selective for LXRα or LXRβ, or it may have mixed binding affinity for both LXRα and LXRβ. Particularly, compounds within the scope of this invention include those which have greater selectivity as determined by binding affinity for LXRα and/or LXRβ receptors than they have for each of the PPARα, γ and δ receptors.

A further assay addresses T3, human PPARα (Homo sapiens, UniProt Q07869).
T3 sequence (Q07869 1-468): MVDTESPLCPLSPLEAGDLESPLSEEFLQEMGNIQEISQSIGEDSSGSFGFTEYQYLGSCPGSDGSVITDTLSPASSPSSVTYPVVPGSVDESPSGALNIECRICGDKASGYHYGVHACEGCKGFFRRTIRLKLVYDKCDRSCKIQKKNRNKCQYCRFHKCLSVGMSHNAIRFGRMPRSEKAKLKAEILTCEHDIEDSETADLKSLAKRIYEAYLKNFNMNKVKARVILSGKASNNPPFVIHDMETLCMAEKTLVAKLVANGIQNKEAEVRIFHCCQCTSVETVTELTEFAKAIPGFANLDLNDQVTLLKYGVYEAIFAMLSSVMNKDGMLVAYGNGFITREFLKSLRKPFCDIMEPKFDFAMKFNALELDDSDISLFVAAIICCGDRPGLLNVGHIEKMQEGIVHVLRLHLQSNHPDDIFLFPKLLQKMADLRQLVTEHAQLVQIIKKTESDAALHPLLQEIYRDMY
Nature of the assay: PPARα competition binding assay.
Excerpt: as §1

Assay [1] relates to cholesterol-loaded THP-1 macrophages. Nature of the assay: Stimulation of cholesterol efflux from cholesterol-loaded THP-1 macrophages. Format: cell-based, human. The following applies: 1 μM, 24 hours, mean±SEM. The source says:
Stimulation of Cholesterol Efflux from Cholesterol-Loaded Cells
To determine if LXR agonists could increase cholesterol efflux in cells that were loaded with excess cholesterol, THP-1 cells were loaded with cholesterol using acetylated LDL prior to the assay of cholesterol efflux Specifically, cultured human THP-1 cells were stimulated to differentiate into macrophages as described above. After differentiation, the THP-1 macrophages were loaded with cholesterol and simultaneously labeled with ^3H-cholesterol using acetylated LDL containing ^3H-cholesterol essentially as described by Kritharides et al. (1998) Arterioscler Thromb Vasc Biol. 18:1589-1599. After 24 hours of incubation with 100 μg/ml of acetylated LDL labelled with ^3H-cholesterol, the cells were incubated in Complete RPMI medium containing 0.1% lipid-free BSA for 24 hours to allow for equilibration of cellular cholesterol pools. Cholesterol efflux was then measured over the following 24 hours by incubating the cells in Complete RPMI medium with either apoA-I or HDL as cholesterol acceptor, and with either 1 μM Compound 1 or DMSO as control.

Take `CC(=O)Oc1ccc2c(c1)[C@@]1(C)CCC[C@](C)(C(=O)OC(=O)[C@@]3(C)CCC[C@]4(C)c5cc(OC(C)=O)ccc5CC[C@@H]34)[C@@H]1CC2` [Compound 1]: the IC50 was 80 nM at human GST-LXRα receptor, over 10 µM on human PPARγ and over 10 µM on human PPARα. Also, the inhibition constant Ki on human GST-LXRα receptor (read-out: LXRα calculated Ki) is about 30 nM. Further, the “Cholesterol efflux (% of cell contents)” value in assay [1] (acceptor 10 μg/ml apoA-I, DMSO control 6.4 ± 0.3) is 10.3 ± 0.4 % of cell contents; in assay [1] (acceptor 25 μg/ml HDL, DMSO control 14.9 ± 0.5), 18.6 ± 0.7 % of cell contents.
